{"source": "paper PMC5566973", "about": "(Frontiers in Pharmacology, 2017)", "experiment_in_all_cases": "in vitro", "key": {"Caco-2 cell monolayers": {"system": "Caco-2 cell monolayers", "experimental": "(§1) Caco-2, MDCK and MDCK-MRP2 cells were donated by Prof. Yan Xie and Yueming Ma from Shanghai University of Traditional Chinese Medicine. The cells were grown in culture dishes (Corning® Costar, Cambridge, MA, USA) using DMEM supplemented with 10% FBS, 1% NEAA and 1% penicillin-streptomycin solution. The cells were cultured in 5% CO2 and […] with 90% relative humidity at 37°C. The medium was replaced every other day during incubation. The cells were passaged every 3–4 days between 70 and 80% confluence at a 1:5 split ratio using 0.25% trypsin-EDTA. For the transport experiments, the cells from passages between 30 and 45 were seeded at 1 × 10^5 cells/cm^2 onto permeable polycarbonate inserts (0.45 μm pore size, seeding surface of 0.6 cm^2, Millipore, MA, USA) in 24-well plastic plates. The media in the culture plates were changed every other day for the first week after seeding and were replaced daily afterward. […] The cells were used for the transport experiments 21–28 (Caco-2) or 5–7 (MDCK and MDCK-MRP2) days after seeding, and only monolayers with a TEER-value above 420 Ω cm^2 were used during the studies.\n(§2) The apical (AP) and basolateral (BL) sides are typical of polarized Caco-2, MDCK and MDCK-MRP2 epithelial cells. Before the experiments, the polarized cell monolayers were washed twice with warm HBSS solution and subsequently preincubated (37°C, 30 min). Afterward, HBSS solution on both sides of the cell monolayers was removed using a mini desktop vacuum pump. […] The final DMSO concentration in the HBSS or drug mixture was below 0.5%. The monolayers were incubated at 37°C, and 100 μL samples were taken at 30, 60, 90, and 120 min from the acceptor compartment and immediately replaced with the same volume of prewarmed fresh blank HBSS. TEER measurements for assessing the membrane integrity took place before and after the experiments.\n(§3) The apparent permeability coefficients (Papp) and ER were calculated as Equations (2) and (3): […]\n(§4) where dQ/dt is the steady-state flux, A is the membrane surface area, and C0 is the initial drug concentration in the donor compartment. PappBA is the Papp-value measured in BL to AP direction and PappAB is the Papp-value measured in AP to BL direction. It indicated the involvement of an active transport process when the ER-value is above 1.5 (Hubatsch et al., [2007])."}, "MDCK cell monolayers": {"system": "MDCK cell monolayers", "conditions": "2 μM", "experimental": "as §1, §2, §3, §4"}, "MDR1": {"system": "MDR1", "conditions": "human, Caco-2, ER, Caco-2, 2 μM", "experimental": "as §1, §2, §3, §4"}, "MRP2": {"system": "MRP2", "conditions": "human, Caco-2, ER, Caco-2, 2 μM", "experimental": "as §1, §2, §3, §4"}, "Na+/K+-ATPase": {"system": "Na+/K+-ATPase", "conditions": "human, Caco-2, 2 μM, + Sodium vanadate 0.05 mM (Na^+)", "experimental": "as §1, §2, §3, §4"}, "OATPs": {"system": "OATPs", "conditions": "human, Caco-2, ER, Caco-2, 2 μM, + ES 0.05 mM (OATPs)", "experimental": "as §1, §2, §3, §4"}, "OATs": {"system": "OATs", "conditions": "human, Caco-2, ER, Caco-2, 2 μM, + Cimetidine 0.05 mM (OATs)", "experimental": "as §1, §2, §3, §4"}, "PEPT1": {"system": "PEPT1", "conditions": "human, Caco-2, ER, Caco-2, 2 μM, + Gly-Sar 10 mM (PEPT1)", "experimental": "as §1, §2, §3, §4"}, "[1]": {"conditions": "Caco-2, 2 μM, + MK571 0.05 mM (MRP2)"}, "[2]": {"conditions": "Caco-2, 2 μM, + NaN3 10 mM (ATP)"}, "[3]": {"conditions": "Caco-2, 2 μM, + Phloretin 0.3 mM (MCTs)"}, "[4]": {"conditions": "Caco-2, 2 μM, + Phloridzin 0.5 mM (SGLT1)"}, "[5]": {"conditions": "Caco-2, 2 μM, + Probenecid 0.2 mM (MRP2)"}, "[6]": {"conditions": "Caco-2, 2 μM, + Quinidine 0.1 mM (MDR1)"}, "[7]": {"conditions": "Caco-2, 2 μM, + TEA 5 mM (OCTs/OCTNs)"}, "[8]": {"conditions": "Caco-2, 2 μM, + Verapamil 0.1 mM (MDR1)"}, "[9]": {"conditions": "Caco-2, 2 μM, Control (no inhibitor or substrate)"}, "[10]": {"conditions": "Caco-2, 2 μM, Control (pH 7.4, 37°C, without EDTA)"}, "[11]": {"conditions": "Control (pH 7.4, 37°C, without EDTA)"}, "[12]": {"conditions": "with EDTA 5 mM, listed as harmaline"}}, "data": [{"smiles": "COc1ccc2c3c([nH]c2c1)C(C)=NCC3", "note": "[Harmaline]", "values": [{"measurement": "Modulatory effect", "setting": "Caco-2 cell monolayers; [1]", "value": "−"}, {"measurement": "PappAB", "setting": "Caco-2 cell monolayers; [1]", "value": "27.90 ± 1.31 1 × 10^−6 cm/s"}, {"measurement": "PappBA", "setting": "Caco-2 cell monolayers; [1]", "value": "25.82 ± 0.71 1 × 10^−6 cm/s"}, {"measurement": "Modulatory effect", "setting": "Caco-2 cell monolayers; [2]", "value": "+"}, {"measurement": "PappAB", "setting": "Caco-2 cell monolayers; [2]", "value": "22.75 ± 2.68^* 1 × 10^−6 cm/s"}, {"measurement": "PappBA", "setting": "Caco-2 cell monolayers; [2]", "value": "26.18 ± 1.02 1 × 10^−6 cm/s"}, {"measurement": "Modulatory effect", "setting": "Caco-2 cell monolayers; [3]", "value": "−"}, {"measurement": "PappAB", "setting": "Caco-2 cell monolayers; [3]", "value": "27.77 ± 2.14 1 × 10^−6 cm/s"}, {"measurement": "PappBA", "setting": "Caco-2 cell monolayers; [3]", "value": "26.25 ± 0.91 1 × 10^−6 cm/s"}, {"measurement": "Modulatory effect", "setting": "Caco-2 cell monolayers; [4]", "value": "−"}, {"measurement": "PappAB", "setting": "Caco-2 cell monolayers; [4]", "value": "27.57 ± 2.40 1 × 10^−6 cm/s"}, {"measurement": "PappBA", "setting": "Caco-2 cell monolayers; [4]", "value": "26.07 ± 1.60 1 × 10^−6 cm/s"}, {"measurement": "Modulatory effect", "setting": "Caco-2 cell monolayers; [5]", "value": "−"}, {"measurement": "PappAB", "setting": "Caco-2 cell monolayers; [5]", "value": "27.22 ± 1.04 1 × 10^−6 cm/s"}, {"measurement": "PappBA", "setting": "Caco-2 cell monolayers; [5]", "value": "26.10 ± 1.02 1 × 10^−6 cm/s"}, {"measurement": "Modulatory effect", "setting": "Caco-2 cell monolayers; [6]", "value": "−"}, {"measurement": "PappAB", "setting": "Caco-2 cell monolayers; [6]", "value": "27.54 ± 1.35 1 × 10^−6 cm/s"}, {"measurement": "PappBA", "setting": "Caco-2 cell monolayers; [6]", "value": "26.44 ± 1.47 1 × 10^−6 cm/s"}, {"measurement": "Modulatory effect", "setting": "Caco-2 cell monolayers; Caco-2, 2 μM, + Sodium vanadate 0.05 mM (Na^+)", "value": "+"}, {"measurement": "Modulatory effect", "setting": "Caco-2 cell monolayers; [7]", "value": "+"}, {"measurement": "PappBA", "setting": "Caco-2 cell monolayers; [7]", "value": "26.75 ± 1.58 1 × 10^−6 cm/s"}, {"measurement": "Modulatory effect", "setting": "Caco-2 cell monolayers; [8]", "value": "−"}, {"measurement": "PappAB", "setting": "Caco-2 cell monolayers; [8]", "value": "27.32 ± 1.33 1 × 10^−6 cm/s"}, {"measurement": "PappBA", "setting": "Caco-2 cell monolayers; [8]", "value": "25.68 ± 1.55 1 × 10^−6 cm/s"}, {"measurement": "PappAB", "setting": "Caco-2 cell monolayers; [9]", "value": "27.48 ± 0.18 1 × 10^−6 cm/s"}, {"measurement": "PappBA", "setting": "Caco-2 cell monolayers; [9]", "value": "26.19 ± 4.02 1 × 10^−6 cm/s"}, {"measurement": "PappAB", "setting": "Caco-2 cell monolayers; [10]", "value": "27.72 ± 1.06 1 × 10^−6 cm/s"}, {"measurement": "PappBA", "setting": "Caco-2 cell monolayers; [10]", "value": "26.42 ± 0.49 1 × 10^−6 cm/s"}, {"measurement": "PappAB", "setting": "Caco-2 cell monolayers; Caco-2, 2 μM, with EDTA 5 mM", "value": "35.23 ± 2.68^* 1 × 10^−6 cm/s"}, {"measurement": "PappBA", "setting": "Caco-2 cell monolayers; Caco-2, 2 μM, with EDTA 5 mM", "value": "39.57 ± 2.10^* 1 × 10^−6 cm/s"}, {"measurement": "PappAB", "setting": "Caco-2 cell monolayers; Caco-2, initial concentration 2 μM", "value": "27.72 ± 1.06 1 × 10^−6 cm/s"}, {"measurement": "ER-values at the tested concentrations", "setting": "Caco-2 cell monolayers; Caco-2 and MDCK, 1, 2, and 5 μM", "value": "< 1.5"}, {"measurement": "PappAB at 37°C relative to 4°C", "setting": "MDCK cell monolayers", "value": 3.77, "unit": "folds"}, {"measurement": "PappAB at pH 7.4 relative to pH 5.5", "setting": "MDCK cell monolayers", "value": 1.56, "unit": "folds"}, {"measurement": "PappAB", "setting": "MDCK cell monolayers; 4°C", "value": "5.40 ± 0.99^*** 1 × 10^−6 cm/s"}, {"measurement": "PappBA", "setting": "MDCK cell monolayers; 4°C", "value": "6.65 ± 0.64^*** 1 × 10^−6 cm/s"}, {"measurement": "PappAB", "setting": "MDCK cell monolayers; [11]", "value": "20.36 ± 1.82 1 × 10^−6 cm/s"}, {"measurement": "PappBA", "setting": "MDCK cell monolayers; [11]", "value": "21.03 ± 2.11 1 × 10^−6 cm/s"}, {"measurement": "PappAB", "setting": "MDCK cell monolayers; with EDTA 5 mM", "value": "29.43 ± 1.45^* 1 × 10^−6 cm/s"}, {"measurement": "PappBA", "setting": "MDCK cell monolayers; with EDTA 5 mM", "value": "26.34 ± 0.93^* 1 × 10^−6 cm/s"}, {"measurement": "PappAB", "setting": "MDCK cell monolayers; [12]", "value": "29.43 ± 1.45 1 × 10^−6 cm/s"}, {"measurement": "PappBA", "setting": "MDCK cell monolayers; [12]", "value": "26.34 ± 0.93 1 × 10^−6 cm/s"}, {"measurement": "efflux ratio", "setting": "MDR1; + Quinidine 0.1 mM (MDR1)", "value": 0.96}, {"measurement": "efflux ratio", "setting": "MDR1; + Verapamil 0.1 mM (MDR1)", "value": 0.94}, {"measurement": "efflux ratio", "setting": "MRP2; + MK571 0.05 mM (MRP2)", "value": 0.93}, {"measurement": "efflux ratio", "setting": "MRP2; + Probenecid 0.2 mM (MRP2)", "value": 0.96}, {"measurement": "efflux ratio", "setting": "Na+/K+-ATPase; Caco-2, ER", "value": 1.27}, {"measurement": "Papp B→A", "setting": "Na+/K+-ATPase; Caco-2, PappBA", "value": "26.9 ± 1.26", "unit": "×10⁻⁶ cm/s"}, {"measurement": "efflux ratio", "setting": "OATPs", "value": 1.12}, {"measurement": "efflux ratio", "setting": "OATs", "value": 0.97}, {"measurement": "efflux ratio", "setting": "PEPT1", "value": 0.95}]}]}
